Results taken from patent US8003124B2, “Sustained release implants and methods for subretinal delivery of bioactive agents to treat or prevent retinal disease” (Surmodics, Inc., priority 2005, dated 2011).

Tests used:
[1] = three days following an injection; cited from earlier work
rabbit eye = conditions: in vivo
Protocol: Pupils were fully dilated before implantation with 1 drop each of cyclopentolate hydrochloride 1% (Bausch & Lomb, Rochester, N.Y.) and phenylephrine hydrochloride 5% (Bausch & Lomb). […] A periocular surgical prep was performed by swabbing the area using a 1:10 dilution of povidone iodine in saline. The surface of the eye was prepped with a 1:20 dilution of povidone iodine in saline. The rabbit was positioned under the operating microscope and draped. A wire lid speculum was placed.
A two-port core vitrectomy was performed, with illumination provided by the operating microscope (Carl Zeiss Ophthalmic Systems, Inc.). […] The feathered shape and semi-rigid structure of the implant allowed easy insertion. […] At the conclusion of surgery, a subconjunctival injection of antibiotic, 0.1 cc of 40 mg/ml gentamycin (Phoenix Scientific, St. Joseph, Mo.) and 0.1 cc of 2 mg/ml dexamethasone (Phoenix Scientific) was administered away from the surgery site. […]
Complete ophthalmic examinations using indirect ophthalmoscopy and a 20-diopter lens (Vantage Indirect Ophthalmoscope, Keeler Ltd., Windsor, England) were performed at baseline and 1, 2, and 4 weeks postoperatively. […] The lens was inspected for cataract formation and further evaluated with respect to any lens touch that may have occurred during the implantation.

[2] = In vivo elution: TA by HPLC in eye tissues, aqueous and blood after subretinal PCL/TA 60:40 implant; conditions: four weeks after subretinal PCL/TA 60:40 implant, rabbit

C[C@]12C=CC(=O)C=C1CC[C@H]1[C@@H]3C[C@@H](O)[C@](O)(C(=O)CO)[C@@]3(C)C[C@H](O)[C@@]12F [triamcinolone]
share of the triamcinolone present in the vitreous associated with other tissues including the retina, pigment epithelium, and sclera [1]: less than 1%

CO[C@H]1C[C@@H]2CC[C@@H](C)[C@@](O)(O2)C(=O)C(=O)N2CCCC[C@H]2C(=O)O[C@H]([C@H](C)C[C@@H]2CC[C@@H](O)[C@H](OC)C2)CC(=O)[C@H](C)/C=C(\C)[C@@H](O)[C@@H](OC)C(=O)[C@H](C)C[C@H](C)/C=C/C=C/C=C/1C [rapamycin]
biocompatibility / toxicity, clinical examinations (rabbit eye): may be toxic to the rabbit eye at the current doses

CC1(C)O[C@@H]2C[C@H]3[C@@H]4CCC5=CC(=O)C=C[C@]5(C)[C@@]4(F)[C@@H](O)C[C@]3(C)[C@]2(C(=O)CO)O1 [TA, Triamcinolone acetonide]
TA in the anterior structures (HPLC) [2]: not detected
TA in the blood (HPLC) [2]: not detected
TA in the posterior tissue samples (HPLC) ([2]; qualitative, FIG. 9): confirmed the presence
